{"source": "patent US20230348418A1", "about": "“ISOINDOLINONE COMPOUNDS” (Monte Rosa Therapeutics, Inc., priority 2021, published 2023)", "type_in_all_cases": "cell-based", "key": {"GSPT1 [1]": {"molecular_target": "T1, GSPT1 (Homo sapiens, UniProt P15170+Q96SW2)", "T1 sequence (P15170 whole entry)": "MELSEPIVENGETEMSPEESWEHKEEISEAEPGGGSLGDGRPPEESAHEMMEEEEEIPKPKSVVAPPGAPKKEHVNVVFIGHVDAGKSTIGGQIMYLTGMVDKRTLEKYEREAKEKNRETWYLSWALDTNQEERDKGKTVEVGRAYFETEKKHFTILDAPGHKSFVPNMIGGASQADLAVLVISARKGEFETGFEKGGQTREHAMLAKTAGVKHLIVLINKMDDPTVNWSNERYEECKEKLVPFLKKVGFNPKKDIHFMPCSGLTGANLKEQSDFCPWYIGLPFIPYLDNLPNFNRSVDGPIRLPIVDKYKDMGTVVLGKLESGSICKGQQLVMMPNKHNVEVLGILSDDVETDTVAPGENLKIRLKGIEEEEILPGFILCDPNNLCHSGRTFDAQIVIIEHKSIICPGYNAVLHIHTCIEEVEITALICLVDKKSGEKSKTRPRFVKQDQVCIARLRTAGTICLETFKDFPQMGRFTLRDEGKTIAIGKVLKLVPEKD", "T1 sequence (Q96SW2 whole entry)": "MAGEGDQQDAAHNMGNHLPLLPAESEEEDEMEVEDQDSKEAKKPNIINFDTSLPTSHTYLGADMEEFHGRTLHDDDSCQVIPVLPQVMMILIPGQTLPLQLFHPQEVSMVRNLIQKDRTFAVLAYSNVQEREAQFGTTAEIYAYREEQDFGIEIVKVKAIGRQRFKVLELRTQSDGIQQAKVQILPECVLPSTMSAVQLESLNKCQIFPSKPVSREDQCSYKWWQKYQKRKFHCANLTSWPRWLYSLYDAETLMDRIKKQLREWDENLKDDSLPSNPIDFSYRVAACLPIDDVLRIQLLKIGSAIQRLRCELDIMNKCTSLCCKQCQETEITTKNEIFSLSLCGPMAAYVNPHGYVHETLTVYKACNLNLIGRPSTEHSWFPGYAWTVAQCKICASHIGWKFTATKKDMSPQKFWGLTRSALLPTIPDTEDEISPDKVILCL", "T1 sequence (Q16531 2-1140 partner limits assumed)": "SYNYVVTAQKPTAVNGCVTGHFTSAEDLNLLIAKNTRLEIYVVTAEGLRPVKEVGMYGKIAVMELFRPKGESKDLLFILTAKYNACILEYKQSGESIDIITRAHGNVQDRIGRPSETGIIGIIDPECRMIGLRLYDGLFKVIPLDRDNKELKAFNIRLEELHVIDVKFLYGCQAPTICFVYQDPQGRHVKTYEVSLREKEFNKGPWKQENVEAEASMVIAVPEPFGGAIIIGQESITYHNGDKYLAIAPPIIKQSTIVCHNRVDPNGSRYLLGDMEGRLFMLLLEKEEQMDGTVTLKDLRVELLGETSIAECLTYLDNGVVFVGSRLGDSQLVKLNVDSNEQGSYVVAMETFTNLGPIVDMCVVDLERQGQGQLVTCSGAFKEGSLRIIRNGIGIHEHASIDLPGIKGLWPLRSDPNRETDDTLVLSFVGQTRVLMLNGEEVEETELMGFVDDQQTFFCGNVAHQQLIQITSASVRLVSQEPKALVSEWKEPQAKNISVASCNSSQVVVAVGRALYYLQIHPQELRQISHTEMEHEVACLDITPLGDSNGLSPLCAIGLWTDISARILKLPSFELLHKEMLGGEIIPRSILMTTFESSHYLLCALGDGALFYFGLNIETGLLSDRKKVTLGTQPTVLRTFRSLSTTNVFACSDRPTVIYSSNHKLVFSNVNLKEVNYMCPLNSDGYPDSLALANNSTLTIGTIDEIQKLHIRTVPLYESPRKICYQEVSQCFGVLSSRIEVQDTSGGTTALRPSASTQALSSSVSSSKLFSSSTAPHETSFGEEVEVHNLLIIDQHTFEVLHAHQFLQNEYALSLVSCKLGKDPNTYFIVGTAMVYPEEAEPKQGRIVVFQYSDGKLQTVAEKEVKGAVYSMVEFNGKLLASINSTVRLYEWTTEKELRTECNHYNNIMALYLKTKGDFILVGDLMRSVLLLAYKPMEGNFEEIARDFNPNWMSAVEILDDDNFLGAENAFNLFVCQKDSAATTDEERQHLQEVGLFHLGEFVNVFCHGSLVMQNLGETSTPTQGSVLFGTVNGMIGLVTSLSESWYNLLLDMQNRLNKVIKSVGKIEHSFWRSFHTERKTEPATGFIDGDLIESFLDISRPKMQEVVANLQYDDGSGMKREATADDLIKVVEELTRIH", "experiment": "GSPT1 degradation in ABC-1 cells", "set-up": "endogenous in cells", "experimental": "(§1) GSPT1 was degraded by compound 10 after six hours of treatment in high N-Myc NCI-H1155 and ABC-1 cells with a DC50 of 3 nM and 22 nM, respectively (x-axys represents […]M concentration of compound 10; y-axis represents the viability in %)."}, "GSPT1 [2]": {"molecular_target": "T1, GSPT1", "experiment": "GSPT1 levels by western blotting/densitometry in NSCLC cell lines NCI-H1155 and ABC-1", "experimental": "(§2) The anti-proliferative activity of compound 10 was tested on representative N-Myc high and N-Myc low cell lines (NCI-H1155, ABC-1 and EBC-1, NCI-H2023, respectively) following treatment with compound for 72 hours. Cells were sub-cultures as recommended by the providers (ATCC, DSMZ) and incubated at 37° C., 5% CO2. All cells were authenticated and confirmed by Short Tandem Repeat (STR) profiling. Briefly, cells were seeded to the appropriate density to allow logarithmic growth over the assay period in 96-well opaque-walled clear bottom plates (from Corning, Cat. No. 3903, Lot. No. 16419061; 100 μL total volume) and incubated overnight. […] Cell viability was assessed using the CellTiter-Glo assay kit as recommended by the Manufacturer (Promega, Cat. No. G7558, Lot. No. 0000385738) and measurements performed on the EnSpire multimode plate reader (Perkin Elmer). EC50 values were determined using Prism8 (GraphPad) and the asymmetric (five-parameter) equation and least squares fit. GSPT1 levels were assessed in the NCI-H1155 and ABC-1 cell lines by densitometry analysis following treatment with compound 10 for 6 hours and western blotting analysis. […] For chemiluminescence and colorimetric signals “optimal automatic exposure” settings (3×3 binning) were employed while fluorescence was detected using 1-4 seconds exposure time to achieve best GAPDH signals and avoid overexposure. […]"}, "GSPT1 [3]": {"molecular_target": "T1, GSPT1", "experiment": "GSPT1 degradation in NCI-H1155 cells", "experimental": "as §1"}, "[4]": {"test_system": "NCI-H1155, ABC-1 and EBC-1, NCI-H2023 cell lines", "experiment": "Viability assay (CellTiter-Glo) in N-Myc high and N-Myc low NSCLC cell lines", "conditions": "72 hours", "experimental": "as §2"}}}
{"smiles": "Cc1ccc(NC(=O)OCc2ccc3c(c2)C(=O)N(C2CCC(=O)NC2=O)C3)cc1Cl", "note": "(centres unmarked) [Compound 10]", "values": [{"measurement": "extent of GSPT1 degradation", "setting": "GSPT1 [1]", "result": "complete degradation"}, {"measurement": "Concentration dependence of GSPT1 degradation (FIG. 2B)", "setting": "GSPT1 [2]; NCI-H1155 and ABC-1 cells", "result": "Degradation took place in a concentration dependent manner"}, {"measurement": "extent of GSPT1 degradation", "setting": "GSPT1 [2]; high N-Myc NCI-H1155 and ABC-1 cells, six hours of treatment", "result": "Complete degradation of GSPT1"}, {"measurement": "extent of GSPT1 degradation", "setting": "GSPT1 [3]", "result": "complete degradation"}, {"measurement": "Sensitivity (anti-proliferative activity) versus N-Myc expression (FIG. 2A)", "setting": "[4]", "result": "sensitivity correlated with the expression of N-Myc"}]}
